Measured values from patent publication US20220127607A1, “METHODS AND MATERIALS FOR ACTIVATING AN INTERNAL RIBOSOME ENTRY SITE IN EXON 5 OF THE DMD GENE” (RESEARCH INSTITUTE AT NATIONWIDE CHILDREN'S HOSPITAL, priority 2014, published 2022).
Entries after “also recorded” stand apart in the source; their conditions may differ.

How the values were obtained:
[1] = system: DMD exon 2; assay: RT-PCR of exon 2 skipping in patient-derived FibroMyoD cells; assay type: cell-based, human
From the text: FIGS. 3A-3D. Out-of-frame exon-skipping stimulates IRES activity in patient-derived cell lines. (FIG. 3A) Schematic representation of the human DMD exon 1-10 reading frame (blue) and 5′UTR (red). Blue numbers above each exon indicate cDNA positions; red numbers at the base of each exon indicate the amino acid position. The canonical actin binding domain 1 is represented, along with the predicted (via ScanProsite) CH and ABS domains. (FIG. 3B) Schematic representation of exon 2 (SEQ ID NO: 30). The selected targeted sequences are indicated below, affecting either splice acceptor (S.A.), splice donor (S.D.), or exon splice enhancer (E.S.E.) sequences (as predicted using Human Splicing Finder or ESE finder 3.0). (FIG. 3C) Two copies each of U7-C and U7-AL were cloned into the same AAV plasmid, as they were the most efficient in skipping exon 2 (see FIGS. 10A-10B). The resulting construct is referred to as U7-ACCA. RT-PCR results after infection of U7-ACCA vector (1E11 vg) or H2A antisense oligonucleotide (AON H2A) into either wt or duplicated exon 2 FibroMyoD (FM) cells. […]
In considering skipping of exons prior to the exon 5 IRES, only the removal of exon 2 will disrupt the reading frame and result in a premature stop codon (FIG. 3A). […]

[2] = system: Dup2 mice; assay: Central nucleation of myofibers in Dup2 mouse muscle; assay type: in vivo; details: Dup2 TA, 4 weeks post-injection; agent alone (U7-ACCA 5e11vg IM; PDN 1 mg/kg/day ip); untreated Dup2 73.0±1.6
Description: Expression of the IRES-driven isoform improves muscle membrane integrity and protects Dup2 muscle from contraction-induced damage. Dup2 tibialis anterior muscles were treated by intramuscular injection of 5e11vg U7-ACCA alone or with methylprednisolone (PDN: 1 mg/kg/day intraperitoneal) and analyzed at 4 weeks post-injection. […] EBD-positive fibers were quantified as a percent out of a total of 5,000 fibers counted per animal.

[3] = system: Dup2 mice; assay: Grip strength; assay type: in vivo, mouse; details: 4 weeks, agent alone, untreated Dup2 2.22±0.26, BI6 3.36±0.37
Description: (§3) Dup2 tibialis anterior muscles were treated by intramuscular injection of 5e11vg U7-ACCA alone or with methylprednisolone (PDN: 1 mg/kg/day intraperitoneal) and analyzed at 4 weeks post-injection. […] EBD-positive fibers were quantified as a percent out of a total of 5,000 fibers counted per animal.
(FIG. 17C) Immunostaining of dystrophin on the same samples confirms dystrophin expression and its proper localization at the sarcolemma.

[4] = system: Dup2 mice; assay: Loss of force following repetitive eccentric contractions; assay type: in vivo, mouse; details: Dup2 TA, 4 weeks; agent alone
[5] = system: utrophin; assay: Utrophin immunoblot in mouse muscle; assay type: in vivo; details: Dup2 mice, PDN 1 mg/kg/day treated versus untreated, with or without U7-ACCA
Description: (§1) FIGS. 5A-5F. […] (FIG. 5A) Dual luciferase assay performed on lysates from C2C12 cells transfected with the pRDEF vector carrying the exon 5-6 IRES construct. […] Error bars representate s.d. […] The image intensity for the wild-type lane was lowered to allow identification of bands. MHC=myosin heavy chain (loading control). […] Immunoblot was performed on each muscle in duplicate, and the signals for both dystrophin and α-actinin from the resulting 5 lanes were quantified using ImageJ. […] The signals for both utrophin and α-actinin from the resulting 5 lanes were quantified using ImageJ.
(§2) Furthermore, treatment with the glucocorticoids prednisone and deflazacort are standard treatment for DMD. […] Because utrophin translation may be regulated by corticosteroids and overexpression can compensate for absent dystrophin, we assessed utrophin levels in the same injected muscles (FIG. 5E).

[6] = system: dystrophin IRES; details: C2C12 cells, pRDEF exon 5-6 IRES construct, increasing concentrations
Description: as §1, §2

[7] = system: dystrophin; assay: Dystrophin immunoblot in FibroMyoD cells; assay type: cell-based, human; details: Dup2 FibroMyoD cells treated with U7-ACCA and 6.4 μM PDN
[8] = system: Dup2 mice; assay: Evans blue dye (EBD) uptake / membrane protection assay; assay type: in vivo, mouse; details: Dup2 TA, 4 weeks post-injection; agent alone (U7-ACCA 5e11vg IM; PDN 1 mg/kg/day ip); untreated Dup2 14.7±6.6
From the text: FIGS. 4A-4F. Intramuscular delivery of U7-ACCA results in significant N-truncated dystrophin expression in Dup2 mice, restoring localization of dystrophin-associated proteins. […] In wild type BI6 animals (FIG. 4B), the wild type transcript was 14.2% and Del2 transcript was 85.8%. (FIG. 4C) RNA-Seq read depth using a tibialis anterior muscle total RNA library from Dup2 U7-ACCA treated (upper) and Dup2 untreated (lower) mice, mapped to the 5′ region of the mouse Dmd gene (mm9, chrX:80,150,000-81,050,000). […] The protein induced in BI6 males injected with U7-ACCA is of the same size as that expressed in the Dup2 treated animals, confirming the size difference between this protein and the full-length isoform. (C-terminal antibody: PA1-21011,Thermo, Inc). […]
FIGS. 6A-6E. […] EBD-positive fibers were quantified as a percent out of a total of 5,000 fibers counted per animal.
We examined whether expression of the IRES-driven isoform improved muscle integrity and physiology in the Dup2 mouse. Similar to the case in mdx mice, dystrophic changes in Dup2 mice are quantifiable at 4 weeks of age as widespread muscle regeneration characterized by centralized nuclei (Vulin et al., manuscript in press). […] Quantification of the number of EBD positive fiber confirms that expression of the IRES driven isoform results in protection of muscle fibers in these mice (FIG. 6B). […]

[9] = system: dystrophin IRES; assay: Dual luciferase IRES assay in 293K cells; assay type: cell-based
From the text: FIGS. 12A-12B. […] Error bars represent s.d. […] N=4 animals per group. Error bars represent s.d.
as §2

[10] = system: Dup2 mice; assay: Muscle force following tetanic contraction; assay type: in vivo, mouse; details: Dup2 TA, 4 weeks; agent alone; untreated Dup2 170.9±14.3, BI6 274.0±12.1
Description: as §3

Row | Compound | exon-skipping (RT-PCR, qualitative) ([1]; control and duplicated exon 2 patient-derived FibroMyoD, 3 days post AAV infection or AON transfection) | transcript lacking exon 2 ([1]; patient cell lines carrying mutation within exon 1 to 4, AAV 1×10E11 vector genomes) | Central nucleation (% of myofibers) [2] | Normalized maximum hindlimb grip strength [3] | Protection from loss of force following repetitive eccentric contractions [4] | utrophin levels [5] | IRES activity, concentration dependence [6] | dystrophin expression [7] | Evans blue dye (EBD)-positive fibers [8] | glucocorticoid activation of IRES [9] | Normalized specific force following tetanic contraction [10]
1 | AON H2A: known antisense oligonucleotide CCAUUUUGUGAAUGUUUUCUUUUGAACAUC (SEQ ID NO: 13), positive control of exon 2 skipping (chemistry not given here) | lower efficiency than U7-mediated skipping | approximately 90% | – | – | – | – | – | – | – | – | –
2 | C[C@H]1C[C@@H]2[C@H]([C@@H](O)C[C@@]3(C)[C@H]2CC[C@]3(O)C(=O)CO)[C@@]2(C)C=CC(=O)C=C12 [PDN, 6-methyl-prednisolone] | – | – | No significant difference | No significant difference | No significant difference | no statistically significant difference; also recorded: does not increase expression of utrophin | increases IRES activity in a dose-dependent fashion | An increase in dystrophin expression | No significant difference | not seen | No significant difference
